Measurements taken from patent publication US10376530B2, “Pharmaceutical composition for preventing or treating gleevec-resistant leukemia containing ginsenoside F1 or ginsenoside Rg3 as an active ingredient” (INTELLIGENT SYNTHETIC BIOLOGY CENTER, priority 2015, dated 2019).

Columns and labels:
Type in all cases: cell-based, human
NK cells [1] = experiment: CD107a level on NK cells in PBMC stimulated with K562 target cells, flow cytometry (Example 1); conditions: PBMC (NK cell purity 95% or higher) treated with ginsenoside, then K562 target cells; FIG. 1
Experimental: To discover ginsenosides which can affect the cell-killing activity of NK cells, peripheral blood mononuclear cells (PBMC) separated from the blood were treated with 15 different kinds of (C-K, F2, PPD, Rb1, Rb2, Rc, Rd, Rg3, Rh2, F1, PPT, Re, Rg1, Rg2, and Rh1) ginsenosides, and then, the level of CD107a, which is a marker protein representing cell-killing activity and expressed on NK cells, was measured by flow cytometry (FIG. 1).
In particular, for the PBMC, those selected as follows were used. That is, the collected blood samples were transferred into Vacutainer Cell Preparation tubes (sodium heparin; BD Biosciences), centrifuged to recover a buffy coat, lymphocytes and monocyte band, and the recovered buffy coat was washed with PBS and applied to the human NK cell negative selection kit (Miltenyl Biotech) to isolate […].
Additionally, the CD107a level was measured as follows. […] Then, the NK cells were isolated by performing flow cytometry analysis using anti-CD3 antibody and anti-CD56 antibody, and the NK cells were immunostained using anti-CD107a antibody and the level of CD107a was measured.

NK cells [2] = experiment: Intracellular IFN-γ expression by NK cells in PBMC stimulated with mutants of KCL-22 cells, flow cytometry (Example 2); conditions: PBMC treated with ginsenoside, stimulated with equal number of mutants of KCL-22 cells, Brefeldin A; FIG. 2
Experimental: The 7 different kinds of ginsenosides discovered in Example 1 were treated and those ginsenosides which increased the expression level of the immune-stimulating factor (IFN-γ) by NK cells were selected (FIG. 2). In particular, the expression level of IFN-γ was measured as follows. That is, the PBMC samples isolated in Example 1 were treated with each ginsenoside, stimulated by treating with the equal number of target cells (mutants of KCL-22 cells), and then treated with Brefeldin A (GolgiPlug; BD Biosciences). Thereafter, a flow cytometry analysis was performed using fluochrome-conjugated anti-CD3 antibody and anti-CD56 antibody to identify NK cells present in PBMC, and then treated with Cytofix/Cytoperm (BD Biosicences) for perforation, and immunostained with fluochrome-conjugated anti-IFN-γ antibody to measure the intracellular level of IFN-γ(FIG. 2).

[3] = test system: Gleevec-resistant mutants of KCL-22 cells; experiment: Cell-killing activity of NK cells against europium-labeled target cells (Example 5); conditions: E:T ratios 0.625:1, 1.25:1, 2.5:1, 5:1; DMSO control; FIGS. 5A and 5B
Experimental: The NK cells isolated in Example 1 was treated with ginsenoside F1 or ginsenoside Rg3, and incubated with target cells (Gleevec-resistant mutants of KCL-22 cells) labeled with an europium fluorescent dye at various E:T ratios (the ratio between the number of NK cells:the number of target cells=0.625:1, 1.25:1, 2.5:1, or 5:1), and thereby breaking down the target cells with the NK cells activated by the ginsenoside, and the europium fluorescent dye labeled to the target cells was released as a reaction solution. Upon completion of the reaction, the level of the europium fluorescent dye contained in the reaction solution was measured, and the cell-killing activity of the NK cells was compared (FIGS. 5A and 5B). In particular, NK cells treated with DMSO, instead of ginsenosides, were used as control group.

NK cells [4] = experiment: Concentration-dependent change of CD107a level on NK cells (Example 4); conditions: NK cells isolated from PBMC, 5 μM to 20 μM; DMSO control; FIGS. 4A and 4B
Experimental: NK cells isolated from PBMC were treated with ginsenoside F1 (which increases the selected CD107a level to the highest level) and Rg3 (which increases the selected CD107a level to the 2nd highest level), selected from Example 3, at various concentrations (5 μM to 20 μM), and the change in the CD107a level was measured (FIGS. 4A and 4B). In particular, NK cells treated with DMSO, instead of ginsenosides, were used as a control group.

NK cells [5] = experiment: CD107a level on primary NK cells incubated with mutants of KCL-22 cells (Example 3); conditions: NK cells isolated from PBMC, incubated with mutants of KCL-22 cells (Gleevec-resistant leukemia cells); DMSO control; FIG. 3
Experimental: An attempt was made to select ginsenosides which induce the increase of the CD107a level on primary NK cells among the 4 different kinds of ginsenosides (Rg3, Rh2, F1, and Rg1) selected in Example 2.
Specifically, the NK cells isolated from the PBMC were activated by treating with the 4 different kinds of ginsenosides, then incubated with mutants of KCL-22 cells (i.e., Gleevec-resistant leukemia cells), and the level of CD107a on NK cells was measured and compared (FIG. 3). In particular, NK cells treated with DMSO, instead of ginsenosides, were used as a control group.

SMILES | level of CD107a expression on NK cells (NK cells [1]) | expression level of IFN-γ by NK cells (NK cells [2]) | cell-killing activity of NK cells (europium fluorescent dye release) [3] | change in the CD107a level on NK cells by concentration (NK cells [4]) | level of CD107a on primary NK cells (rank among the 4 ginsenosides) (NK cells [5]) [nd highest]
CC(C)=CCC[C@](C)(O[C@@H]1O[C@H](CO)[C@@H](O)[C@H](O)[C@H]1O)[C@H]1CC[C@]2(C)[C@@H]1[C@H](O)C[C@@H]1[C@@]3(C)CC[C@H](O[C@@H]4O[C@H](CO)[C@@H](O)[C@H](O)[C@H]4O)C(C)(C)[C@@H]3CC[C@]12C [F2] | increase the level of CD107a expression on NK cells |  |  |  | 
CC(C)=CCC[C@](C)(O[C@@H]1O[C@H](CO[C@@H]2O[C@H](CO)[C@@H](O)[C@H](O)[C@H]2O)[C@@H](O)[C@H](O)[C@H]1O)[C@H]1CC[C@]2(C)[C@@H]1[C@H](O)C[C@@H]1[C@@]3(C)CC[C@H](O[C@@H]4O[C@H](CO)[C@@H](O)[C@H](O)[C@H]4O[C@@H]4O[C@H](CO)[C@@H](O)[C@H](O)[C@H]4O)C(C)(C)[C@@H]3CC[C@]12C [Rb1] | increase the level of CD107a expression on NK cells |  |  |  | 
CC(C)=CCC[C@](C)(O[C@@H]1O[C@H](CO)[C@@H](O)[C@H](O)[C@H]1O)[C@H]1CC[C@]2(C)[C@@H]1[C@H](O)C[C@@H]1[C@@]3(C)CC[C@H](O)C(C)(C)[C@@H]3[C@@H](O[C@@H]3O[C@H](CO)[C@@H](O)[C@H](O)[C@H]3O)C[C@]12C [Rg1] | increase the level of CD107a expression on NK cells | increased |  |  | 
CC(C)=CCC[C@](C)(O)[C@H]1CC[C@]2(C)[C@@H]1[C@H](O)C[C@@H]1[C@@]3(C)CC[C@H](O)C(C)(C)[C@@H]3[C@@H](O[C@@H]3O[C@H](CO)[C@@H](O)[C@H](O)[C@H]3O[C@@H]3O[C@@H](C)[C@H](O)[C@@H](O)[C@H]3O)C[C@]12C [Rg2] | increase the level of CD107a expression on NK cells |  |  |  | 
CC(C)=CCC[C@](C)(O)[C@H]1CC[C@]2(C)[C@@H]1[C@H](O)C[C@@H]1[C@@]3(C)CC[C@H](O[C@@H]4O[C@H](CO)[C@@H](O)[C@H](O)[C@H]4O)C(C)(C)[C@@H]3CC[C@]12C [Rh2] | increase the level of CD107a expression on NK cells | increased |  |  | 
CC(C)=CCC[C@](C)(O)[C@H]1CC[C@]2(C)[C@@H]1[C@H](O)C[C@@H]1[C@@]3(C)CC[C@H](O[C@@H]4O[C@H](CO)[C@@H](O)[C@H](O)[C@H]4O[C@@H]4O[C@H](CO)[C@@H](O)[C@H](O)[C@H]4O)C(C)(C)[C@@H]3CC[C@]12C [ginsenoside Rg3, 20(S)-protopanaxadiol-3-0-β-D-glucopyranosyl(1,2)-β-D-glucopyranoside] | increase the level of CD107a expression on NK cells | increased | promote the cell-killing activity of NK cells against mutants of KCL-22 cells | increase the expression levels of CD107a on NK cells in a concentration-dependent manner | 2
